Laboratory results from the CheMixHub viscosity set.
Values joined by “and” are separate entries in the source; they are usually repeats but may differ in a detail not shown here. Equal entries are not always repeated.

Test: xn = mol fraction of the nth substance listed

ClC=C(Cl)Cl + C1COCCO1
101.33 kPa
Details | viscosity [mPa·s]
298.15 K, x1 = 0.1027 | 1.036
298.15 K, x1 = 0.2015 | 0.963
298.15 K, x1 = 0.3002 | 0.909
298.15 K, x1 = 0.409 | 0.854
298.15 K, x1 = 0.502 | 0.814
298.15 K, x1 = 0.6078 | 0.767
298.15 K, x1 = 0.6921 | 0.732
298.15 K, x1 = 0.8076 | 0.685
298.15 K, x1 = 0.9058 | 0.649
303.15 K, x2 = 0.0577 | 0.5863
303.15 K, x2 = 0.1189 | 0.6434
303.15 K, x2 = 0.289 | 0.7496
303.15 K, x2 = 0.3696 | 0.7787
303.15 K, x2 = 0.4012 | 0.7885
303.15 K, x2 = 0.5728 | 0.837
303.15 K, x2 = 0.6186 | 0.8515
303.15 K, x2 = 0.7841 | 0.9264
303.15 K, x2 = 0.892 | 0.9979
303.15 K, x2 = 0.9513 | 1.045
308.15 K, x1 = 0.1027 | 0.907
308.15 K, x1 = 0.2015 | 0.852
308.15 K, x1 = 0.3002 | 0.804
308.15 K, x1 = 0.409 | 0.757
308.15 K, x1 = 0.502 | 0.727
308.15 K, x1 = 0.6078 | 0.693
308.15 K, x1 = 0.6921 | 0.67
308.15 K, x1 = 0.8076 | 0.64
308.15 K, x1 = 0.9058 | 0.613
318.15 K, x1 = 0.1027 | 0.815
318.15 K, x1 = 0.2015 | 0.764
318.15 K, x1 = 0.3002 | 0.726
318.15 K, x1 = 0.409 | 0.69
318.15 K, x1 = 0.502 | 0.673
318.15 K, x1 = 0.6078 | 0.653
318.15 K, x1 = 0.6921 | 0.635
318.15 K, x1 = 0.8076 | 0.605
318.15 K, x1 = 0.9058 | 0.586

NC1CCCCC1 + CCCCOCCO
298.15 K, 101 kPa
Details | viscosity [mPa·s]
x1 = 0.1169 | 2.872
x1 = 0.2295 | 3.006
x1 = 0.338 | 3.059
x1 = 0.4427 | 3.069
x1 = 0.5437 | 3.011
x1 = 0.6412 | 2.872
x1 = 0.7355 | 2.697
x1 = 0.8266 | 2.447
x1 = 0.9147 | 2.09

O=C1CCCC1 + CCCO
303.15 K, 101 kPa
Details | viscosity [mPa·s]
x1 = 0.1001 | 1.333
x1 = 0.2566 | 1.091
x1 = 0.4203 | 0.974
x1 = 0.5821 | 0.922
x1 = 0.7382 | 0.915
x1 = 0.8967 | 0.935

O=C(CO)[C@@H](O)[C@H](O)[C@H](O)CO + O
Details | viscosity
293.15 K, 101 kPa, x1 = 0.011 | 1.18 mPa·s and 1.18 mPa·s
293.15 K, 101 kPa, x1 = 0.0244 | 1.84 mPa·s
293.15 K, 101 kPa, x1 = 0.0411 | 2.73 mPa·s
293.15 K, 101 kPa, x1 = 0.0625 | 5.02 mPa·s
293.15 K, 101 kPa, x1 = 0.0909 | 10.48 mPa·s and 11 mPa·s
293.15 K, 101 kPa, x1 = 0.13 | 31.43 mPa·s and 32 mPa·s
298.15 K, 101 kPa, x1 = 0.0005 | 0.934 mPa·s and 0.934 mPa·s
298.15 K, 101 kPa, x1 = 0.0007 | 0.9442 mPa·s and 0.9442 mPa·s
298.15 K, 101 kPa, x1 = 0.0009 | 0.9494 mPa·s and 0.9494 mPa·s
298.15 K, 101 kPa, x1 = 0.0018 | 0.9838 mPa·s and 0.9838 mPa·s
298.15 K, 101 kPa, x1 = 0.002 | 0.9772 mPa·s and 0.9772 mPa·s
298.15 K, 101 kPa, x1 = 0.00201 | 0.944 mPa·s
298.15 K, 101 kPa, x1 = 0.004 | 1.063 mPa·s
298.15 K, 101 kPa, x1 = 0.00623 | 1.094 mPa·s
298.15 K, 101 kPa, x1 = 0.011 | 1.02 mPa·s and 1 mPa·s
298.15 K, 101 kPa, x1 = 0.0244 | 1.59 mPa·s
298.15 K, 101 kPa, x1 = 0.0411 | 2.15 mPa·s
298.15 K, 101 kPa, x1 = 0.0625 | 4.17 mPa·s
298.15 K, 101 kPa, x1 = 0.0909 | 8 mPa·s and 8 mPa·s
298.15 K, 101 kPa, x1 = 0.13 | 24.3 mPa·s and 25 mPa·s
298.15 K, 101.3 kPa, x1 = 0.002 | 0.93 mPa·s
298.15 K, 101.3 kPa, x1 = 0.00359 | 0.969 mPa·s
298.15 K, 101.3 kPa, x1 = 0.007154 | 1.055 mPa·s
298.15 K, 101.3 kPa, x1 = 0.01069 | 1.15 mPa·s
298.15 K, 101.3 kPa, x1 = 0.01421 | 1.252 mPa·s
298.15 K, 101.3 kPa, x1 = 0.0177 | 1.362 mPa·s
298.15 K, 101.3 kPa, x1 = 0.02116 | 1.483 mPa·s
303.15 K, 100 kPa, x1 = 0.0009 | 0.8331 mPa·s
303.15 K, 100 kPa, x1 = 0.0027 | 0.8672 mPa·s
303.15 K, 100 kPa, x1 = 0.0045 | 0.9015 mPa·s
303.15 K, 100 kPa, x1 = 0.0063 | 0.9349 mPa·s
303.15 K, 101.3 kPa, x1 = 0.002 | 0.834 mPa·s
308.15 K, 101 kPa, x1 = 0.00201 | 0.7816 mPa·s
308.15 K, 101 kPa, x1 = 0.004 | 0.8663 mPa·s
308.15 K, 101 kPa, x1 = 0.00623 | 0.8883 mPa·s
308.15 K, 101 kPa, x1 = 0.007265 | 0.863 mPa·s
308.15 K, 101 kPa, x1 = 0.01082 | 0.928 mPa·s
308.15 K, 101 kPa, x1 = 0.011 | 0.93 mPa·s and 0.95 mPa·s
308.15 K, 101 kPa, x1 = 0.01435 | 1.01 mPa·s
308.15 K, 101 kPa, x1 = 0.02129 | 1.189 mPa·s
308.15 K, 101 kPa, x1 = 0.0244 | 1.27 mPa·s
308.15 K, 101 kPa, x1 = 0.02481 | 1.305 mPa·s
308.15 K, 101 kPa, x1 = 0.02821 | 1.394 mPa·s
308.15 K, 101 kPa, x1 = 0.04021 | 1.833 mPa·s
308.15 K, 101 kPa, x1 = 0.0411 | 1.96 mPa·s
308.15 K, 101 kPa, x1 = 0.0435 | 1.998 mPa·s
308.15 K, 101 kPa, x1 = 0.05099 | 2.372 mPa·s
308.15 K, 101 kPa, x1 = 0.0625 | 3.08 mPa·s
308.15 K, 101 kPa, x1 = 0.0909 | 5.99 mPa·s and 6.05 mPa·s
308.15 K, 101 kPa, x1 = 0.13 | 14.76 mPa·s and 14 mPa·s
308.15 K, 101.3 kPa, x1 = 0.002 | 0.753 mPa·s
313.15 K, 101 kPa, x1 = 0.011 | 0.77 mPa·s
313.15 K, 101 kPa, x1 = 0.0244 | 1.12 mPa·s
313.15 K, 101 kPa, x1 = 0.0411 | 1.52 mPa·s
313.15 K, 101 kPa, x1 = 0.0625 | 2.83 mPa·s
313.15 K, 101 kPa, x1 = 0.0909 | 4.51 mPa·s and 4.6 mPa·s
313.15 K, 101 kPa, x1 = 0.13 | 11.83 mPa·s and 11.8 mPa·s
313.15 K, 101.3 kPa, x1 = 0.002 | 0.685 mPa·s
318.15 K, 101 kPa, x1 = 0.007256 | 0.696 mPa·s
318.15 K, 101 kPa, x1 = 0.01084 | 0.758 mPa·s
318.15 K, 101 kPa, x1 = 0.02144 | 0.946 mPa·s
318.15 K, 101 kPa, x1 = 0.0244 | 0.99 mPa·s
318.15 K, 101 kPa, x1 = 0.02474 | 1.021 mPa·s
318.15 K, 101 kPa, x1 = 0.03978 | 1.469 mPa·s
318.15 K, 101 kPa, x1 = 0.0411 | 1.24 mPa·s
318.15 K, 101 kPa, x1 = 0.05983 | 2.055 mPa·s
318.15 K, 101 kPa, x1 = 0.0625 | 2.3 mPa·s
318.15 K, 101 kPa, x1 = 0.0909 | 3.65 mPa·s
318.15 K, 101 kPa, x1 = 0.13 | 9.57 mPa·s and 8 mPa·s
318.15 K, 101.3 kPa, x1 = 0.002 | 0.625 mPa·s
323.15 K, 101 kPa, x1 = 0.011 | 0.69 mPa·s
323.15 K, 101 kPa, x1 = 0.0244 | 0.92 mPa·s
323.15 K, 101 kPa, x1 = 0.0411 | 1.29 mPa·s
323.15 K, 101 kPa, x1 = 0.0625 | 2.04 mPa·s
323.15 K, 101 kPa, x1 = 0.0909 | 3.4 mPa·s
323.15 K, 101 kPa, x1 = 0.13 | 7.81 mPa·s and 7.5 mPa·s
